Earlier results as cited in patent publication US20140309168A1, “MODIFIED PEPTIDES AND PROTEINS” (AmideBio, LLC, priority 2010, published 2014).

Conditions: background statement on the marketed peptide

enfuvirtide
in vivo half life: about 3.8 hours
